In ChEMBL document CHEMBL1138792, “Successful virtual screening for a submicromolar antagonist of the neurokinin-1 receptor based on a ligand-supported homology model” (J Med Chem, 2004):

Biological target: Substance-P receptor (Homo sapiens, UniProt P25103)
Assay: Inhibition of substance P binding to Tachykinin receptor 1 in Chinese hamster ovary cells
Assay type: cell-based
Conditions: not given

Chain of Substance-P receptor (P25103 whole entry): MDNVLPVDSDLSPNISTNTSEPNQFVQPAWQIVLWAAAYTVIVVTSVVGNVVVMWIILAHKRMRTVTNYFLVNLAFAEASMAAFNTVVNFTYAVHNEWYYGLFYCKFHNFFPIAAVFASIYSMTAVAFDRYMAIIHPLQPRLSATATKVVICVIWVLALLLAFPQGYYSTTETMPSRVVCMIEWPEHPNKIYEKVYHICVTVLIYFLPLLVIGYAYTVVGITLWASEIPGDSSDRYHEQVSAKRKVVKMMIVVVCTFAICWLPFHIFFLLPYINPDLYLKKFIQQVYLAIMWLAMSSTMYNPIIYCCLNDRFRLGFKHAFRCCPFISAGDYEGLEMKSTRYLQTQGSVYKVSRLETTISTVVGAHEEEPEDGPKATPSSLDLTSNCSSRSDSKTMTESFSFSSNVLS

Row | IC50 | Structure (SMILES)
1 | 67 nM | CC(=O)NC(Cc1c[nH]c2ccccc12)C(=O)OCc1cc(C)cc(C)c1 (centres undefined)
2 | > 10000 nM | N[C@H](Cc1c[nH]c2ccccc12)C(=O)OCc1ccccc1
3 | 0.06 nM | COc1ccc(-n2cnnn2)cc1CN[C@H]1CCCN[C@H]1c1ccccc1
4 | 1530 nM | Cc1cc(C)cc(COC(=O)[C@H](N)Cc2c[nH]c3ccccc23)c1
5 | 250 nM | O=C(CSc1nnc(-c2ccncc2)n1-c1ccccc1)Nc1cccc(Cl)c1
6 | 1 nM | FC(F)(F)c1cc(COCC2(c3ccccc3)CCNCC2)cc(C(F)(F)F)c1
7 | 400 nM | NC(COCc1ccccc1)C(c1ccccc1)c1ccccc1 (centres undefined)
8 | 0.53 nM | NC(=O)CNC(COCc1cc(C(F)(F)F)cc(C(F)(F)F)c1)C(c1ccccc1)c1ccccc1 (stereo in doubt; 5)

Same assay, conditions: ovary

Row | IC50 | Structure (SMILES)
9 | 0.53 nM | NC(=O)CNC(COCc1cc(C(F)(F)F)cc(C(F)(F)F)c1)C(c1ccccc1)c1ccccc1 (stereo in doubt; 16)
